Experiment: Thermogravimetric analysis (TGA) of rotigotine base crystalline Form I
Type: physicochemical
Conditions: platinum baskets, heating rate 5° C./minute, FIG. 4
Protocol: Rotigotine base crystalline form I produces a TGA curve as depicted in FIG. 4. […] The TGA measurement was performed using a TA instruments Q500 Thermal analyzer with Universal Software (version 3.88). Samples were analyzed inside platinum baskets at heating rate of 5° C./minute.

- decomposition on heating (from TGA curve): does not decompose on heating
- thermal stability (from TGA curve): thermally stable
Compound: CCCN(CCc1cccs1)[C@H]1CCc2c(O)cccc2C1 [crystalline rotigotine base Form I, (S)-(−)-5-hydroxy-2-(N-n-propyl-N-2-thienylethyl)-aminotetralin]
